“Also recorded” adds a separate entry of the source. Structures can show the parent of a compound that is named as a salt. Where two headings read alike, the source gives them in different places.
Tests used:
[1] = test system: learning and memory disorder induced by intracerebroventricular injection of Aβ1-42; test: Morris water maze test, rats with intracerebroventricular injection of Aβ1-42; type: in vivo; conditions: Aβ1-42 rats
Description: The model of learning and memory disorder induced after intracerebroventricular injection of Aβ1-42 is the most common animal model for evaluating whether a compound has the effect of improving the learning and memory. […] Morris water maze test and the model of learning and memory disorder induced by intracerebroventricular injection of Aβ1-42 were employed in the present research, and the improvement effects of I-33 on learning and memory of rats at various concentration (0.7 mg/Kg, 3.5 mg/Kg, and 7 mg/Kg) were evaluated.
SD, male (220±20 g), the animals were fed in light: dark cycle (12 h/12 h) in a cleaning level of animal room, ad lib. The tests were performed after 3 days acclimation in the animal room. Aβ1-42 was formulated to 2 μg/μl according to the instruction of specification.
(1) Normal group: intracerebroventricular injection of physiological saline
(2) Model group with intracerebroventricular injection of Aβ1-42: intracerebroventricular injection of Aβ1-42
(4) I-33 (low concentration group): I-33 (0.7 mg/Kg)+intracerebroventricular injection of Aβ1-42
(5) I-33 (medium concentration group): I-33 (3.5 mg/Kg)+intracerebroventricular injection of Aβ1-42
(6) I-33 (high concentration group): I-33 (7 mg/Kg)+intracerebroventricular injection of Aβ1-42
Each rat in normal control group received intracerebroventricular injection of 5 μl of physiological saline, each rat in the other groups received intracerebroventricular injection of 5 μl of Aβ1-42. After the operation, the rats received the following tests after 1 week recovery period. […] The drugs were administered for 8 days, the training for water maze test was started on the 5th day, and the water maze test was formally started on the 9th day.

[2] = biological target: acetylcholinesterase (Homo sapiens (Human), UniProt P22303); test: biochemical; type: biochemical; conditions: for potency on acetylcholinesterase compared with positive control drug donepezil hydrochloride: in vitro, enzymology level; for IC50: modified Ellman method
acetylcholinesterase, sequence (P22303 32-614, species assumed): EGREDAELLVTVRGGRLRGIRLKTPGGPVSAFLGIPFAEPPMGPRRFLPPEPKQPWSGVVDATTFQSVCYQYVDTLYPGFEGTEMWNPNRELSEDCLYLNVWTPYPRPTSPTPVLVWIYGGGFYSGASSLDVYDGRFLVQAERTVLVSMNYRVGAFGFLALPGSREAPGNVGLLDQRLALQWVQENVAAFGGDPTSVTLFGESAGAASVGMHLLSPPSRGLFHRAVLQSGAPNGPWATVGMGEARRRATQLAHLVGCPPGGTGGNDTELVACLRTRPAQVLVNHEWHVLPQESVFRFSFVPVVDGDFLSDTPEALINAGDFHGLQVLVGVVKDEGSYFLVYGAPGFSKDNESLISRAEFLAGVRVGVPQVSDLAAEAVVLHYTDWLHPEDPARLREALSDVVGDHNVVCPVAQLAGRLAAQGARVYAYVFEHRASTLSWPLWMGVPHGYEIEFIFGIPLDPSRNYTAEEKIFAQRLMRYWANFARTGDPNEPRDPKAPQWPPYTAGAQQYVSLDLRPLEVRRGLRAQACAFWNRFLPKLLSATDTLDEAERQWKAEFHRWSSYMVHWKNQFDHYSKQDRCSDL

[3] = test system: learning and memory disorder of mice induced by scopolamine; test: Morris water maze test, senile dementia mice model induced by scopolamine; type: in vivo; conditions: for latent period day 1 / latent period day 2 / latent period day 3 / latent period day 4 / latent period day 5 / times of crossing platform: scopolamine 1 mg/kg; for effect on learning and memory disorder of mice induced by scopolamine: Morris water maze, in comparison with model group / donepezil hydrochloride group
[4] = test system: malonaldehyde (MDA); test: Biochemical indicators of brain tissues (MDA assay) in scopolamine mice; type: in vivo; conditions: brain tissue homogenate, 5 mg/kg
Description: After the behavior test was complete, the mice were sacrificed, brain tissues were collected (operated on an ice plate) and prepared into 10% of tissue homogenate with pre-cooled physiological saline, centrifuged (3000 rpm, 10 min), and the supernatant was subjected to malonaldehyde (MDA) assay following the kits.

[5] = DPH 3 mg/Kg, I-33 all dosages tested
[6] = read-out: IC50 (nM), inhibition activity on acetylcholinesterase

What does the source list for `COc1cc2c(cc1OC)C(=O)C(CC1CCN(Cc3ccccc3)CC1)C2` (stereo not shown) [DPH, donepezil hydrochloride, reference compound]?
The period of reaching the platform for the first time (latent period) ([1]; 3 mg/Kg intragastric, 8 days): 23.94 ± 4.84; times of crossing platform ([1]; 3 mg/Kg intragastric, 8 days): 3.22 ± 0.55; effect on period required for reaching the platform for the first time (latent period) [1, 5]: significantly shorten the period required for reaching the platform for the first time; effect on times of crossing the platform [1, 5]: significantly increases the times of crossing the platform

Which results are given for `Cc1ccccc1CN1CCC(CCN2C(=O)c3cc4c(cc3C23CC3)OCO4)CC1` [Compound I-23, 6-[2-[1-(o-tolylmethyl)-4-piperidyl]ethyl]spiro[[1,3]dioxolo[4,5-f]isoindole-7,1′-cyclopropane]-5-one]?
potency on acetylcholinesterase compared with positive control drug donepezil hydrochloride [2]: even lower; IC50 [2, 6]: 959 nM; latent period day 1 ([3]; Table 4, 5 mg/kg intragastric): 57.8 ± 5.4 s; latent period day 2 ([3]; Table 4, 5 mg/kg intragastric): 57.7 ± 7.1 s; latent period day 3 ([3]; Table 4, 5 mg/kg intragastric): 55.5 ± 8.8 s; latent period day 4 ([3]; Table 4, 5 mg/kg intragastric): 43.9 ± 14.1 s; latent period day 5 ([3]; Table 4, 5 mg/kg intragastric): 51.8 ± 10.9 s; times of crossing platform ([3]; Table 4, 5 mg/kg intragastric): 1.5 ± 1.5; MDA(nmol/mgprot) [4]: 6.53 ± 2.3 nmol/mgprot

How did the “potency on acetylcholinesterase compared with positive control drug donepezil hydrochloride” value [2] turn out when `O=C1c2cc3c(cc2C2(CC2)N1CCC1CCN(Cc2ccccc2F)CC1)OCO3` [Compound I-18, 6-[2-[1-[(2-fluorophenyl)methyl]-4-piperidyl]ethyl]spiro[[1,3]dioxolo[4,5-f]isoindole-7,1′-cyclopropane]-5-one] was run?
Its value is “slightly lower potency than the positive control drug”.

What about the IC50 [2, 6] of the same molecule?
Its IC50 is 154 nM.

And the “effect on learning and memory disorder of mice induced by scopolamine” value [3]?
Its value is “can improve the learning and memory disorder of the animals induced by scopolamine”.

And the “latent period day 1” value ([3]; Table 2, 5 mg/kg intragastric)?
The value was 60 ± 0 s.

What about the “latent period day 2” value ([3]; Table 2, 5 mg/kg intragastric) of the same molecule?
Its value is 60 ± 0 s.

What about the “latent period day 3” value ([3]; Table 2, 5 mg/kg intragastric) of the same molecule?
Its value is 53.1 ± 10.4 s.

What about the “latent period day 4” value ([3]; Table 2, 5 mg/kg intragastric) of the same molecule?
Its value is 56.9 ± 8.2 s.

And the “latent period day 5” value ([3]; Table 2, 5 mg/kg intragastric)?
The value was 56.8 ± 8.6 s.

And the “times of crossing platform” value ([3]; Table 2, 5 mg/kg intragastric)?
The value was 0.5 ± 0.6.

What about the “latent period day 1” value ([3]; Table 3, 5 mg/kg intragastric) of the same molecule?
The value was 55.0 ± 10.3 s.

What about the “latent period day 2” value ([3]; Table 3, 5 mg/kg intragastric) of the same molecule?
Its value is 55.9 ± 9.0 s.

What about the “latent period day 3” value ([3]; Table 3, 5 mg/kg intragastric) of the same molecule?
The value was 60 ± 0 s.

And the “latent period day 4” value ([3]; Table 3, 5 mg/kg intragastric)?
Its value is 51.8 ± 15.6 s.

And the “latent period day 5” value ([3]; Table 3, 5 mg/kg intragastric)?
Its value is 35.6 ± 15.4 s.

What about the “times of crossing platform” value ([3]; Table 3, 5 mg/kg intragastric) of the same molecule?
The value was 1.5 ± 1.7.

What about the “latent period day 1” value ([3]; Table 3, 10 mg/kg intragastric) of the same molecule?
The value was 56.0 ± 9.9 s.

And the “latent period day 2” value ([3]; Table 3, 10 mg/kg intragastric)?
The value was 52.4 ± 12.4 s.

What about the “latent period day 3” value ([3]; Table 3, 10 mg/kg intragastric) of the same molecule?
The value was 60 ± 0 s.

And the “latent period day 4” value ([3]; Table 3, 10 mg/kg intragastric)?
Its value is 48.8 ± 15.4 s.

What about the “latent period day 5” value ([3]; Table 3, 10 mg/kg intragastric) of the same molecule?
The value was 49.2 ± 15.9 s.

And the “times of crossing platform” value ([3]; Table 3, 10 mg/kg intragastric)?
The value was 1.5 ± 1.2.

With `O=C1c2cc3c(cc2C2(CC2)N1CCC1CCN(Cc2ccccc2)CC1)OCO3` [Compound I-17, 6-[2-(1-benzyl-4-piperidyl)ethyl]spiro[[1,3]dioxolo[4,5-f]isoindole-7,1′-cyclopropane]-5-one] as the molecule, how does the IC50 ([2]; IC50 (nM), inhibition activity on acetylcholinesterase) read?
The IC50 was 202 nM.

What about the “potency on acetylcholinesterase compared with positive control drug donepezil hydrochloride” value [2] of the same molecule?
The value was “slightly lower potency than the positive control drug; also recorded: comparable inhibition activity on acetylcholinesterase with donepezil hydrochloride”.

And the “effect on learning and memory disorder of mice induced by scopolamine” value [3]?
The value was “superior to the donepezil hydrochloride group; also recorded: had the effect of improving the learning and memory disorder of mice induced by scopolamine; also recorded: stronger effects of improving learning and memory”.

What about the “latent period day 1” value ([3]; Table 2, 5 mg/kg intragastric) of the same molecule?
Its value is 56.8 ± 8.6 s.

What about the “latent period day 2” value ([3]; Table 2, 5 mg/kg intragastric) of the same molecule?
The value was 60 ± 0 s.

And the “latent period day 3” value ([3]; Table 2, 5 mg/kg intragastric)?
The value was 48.7 ± 15.7 s.

And the “latent period day 4” value ([3]; Table 2, 5 mg/kg intragastric)?
The value was 56.7 ± 8.1 s.

What about the “latent period day 5” value ([3]; Table 2, 5 mg/kg intragastric) of the same molecule?
The value was 47.2 ± 13.4 s.

And the “times of crossing platform” value ([3]; Table 2, 5 mg/kg intragastric)?
Its value is 1.8 ± 2.5.

What about the “latent period day 1” value ([3]; Table 6, 5 mg/kg intragastric) of the same molecule?
The value was 57.3 ± 6.7 s.

And the “latent period day 2” value ([3]; Table 6, 5 mg/kg intragastric)?
Its value is 56.3 ± 9.1 s.

And the “latent period day 3” value ([3]; Table 6, 5 mg/kg intragastric)?
The value was 52.5 ± 10.4 s.

What about the “latent period day 4” value ([3]; Table 6, 5 mg/kg intragastric) of the same molecule?
The value was 46.4 ± 16.6 s.

And the “latent period day 5” value ([3]; Table 6, 5 mg/kg intragastric)?
The value was 43.7 ± 11.8 s.

What about the “times of crossing platform” value ([3]; Table 6, 5 mg/kg intragastric) of the same molecule?
Its value is 2.00 ± 1.41.

And the “latent period day 1” value ([3]; Table 6, 10 mg/kg intragastric)?
The value was 59.9 ± 0.3 s.

What about the “latent period day 2” value ([3]; Table 6, 10 mg/kg intragastric) of the same molecule?
Its value is 58.1 ± 6.2 s.

And the “latent period day 3” value ([3]; Table 6, 10 mg/kg intragastric)?
Its value is 51.1 ± 12.0 s.

What about the “latent period day 4” value ([3]; Table 6, 10 mg/kg intragastric) of the same molecule?
Its value is 42.1 ± 15.5 s.

What about the “latent period day 5” value ([3]; Table 6, 10 mg/kg intragastric) of the same molecule?
The value was 39.3 ± 16.7 s.

And the “times of crossing platform” value ([3]; Table 6, 10 mg/kg intragastric)?
The value was 2.60 ± 1.96.

Which results are given for `O=C1c2cc3c(cc2C2(CC2)N1CCC1CCN(Cc2cccc(F)c2)CC1)OCO3` [Compound I-19, 6-[2-[1-[(3-fluorophenyl)methyl]-4-piperidyl]ethyl]spiro[[1,3]dioxolo[4,5-f]isoindole-7,1′-cyclopropane]-5-one]?
potency on acetylcholinesterase compared with positive control drug donepezil hydrochloride [2]: even lower; IC50 [2, 6]: 376 nM; effect on learning and memory disorder of mice induced by scopolamine [3]: can improve the learning and memory disorder of the animals induced by scopolamine; latent period day 1 ([3]; Table 2, 5 mg/kg intragastric): 60 ± 0 s; latent period day 2 ([3]; Table 2, 5 mg/kg intragastric): 60 ± 0 s; latent period day 3 ([3]; Table 2, 5 mg/kg intragastric): 55.2 ± 11.8 s; latent period day 4 ([3]; Table 2, 5 mg/kg intragastric): 57.3 ± 10.4 s; latent period day 5 ([3]; Table 2, 5 mg/kg intragastric): 53.9 ± 12.4 s; times of crossing platform ([3]; Table 2, 5 mg/kg intragastric): 0.8 ± 1.4
